Values of other authors, collected in patent US20250312270A1, “READY-TO-INFUSE PHENYLEPHRINE COMPOSITIONS” (AMNEAL EU, LIMITED, priority 2023, published 2025).

Tested on: blood pressure
Conditions: doses above 6 mcg/kg/min, intravenous continuous infusion, adult patients with septic or other vasodilatory shock

## CNC[C@H](O)c1cccc(O)c1 [phenylephrine, (R)-3-Hydroxy-α-(methylaminomethyl)benzyl alcohol]
  incremental increase in blood pressure: do not show significant incremental increase in blood pressure
